# Source: patent US10376520B2, “Methods for the treatment of cardiovascular disorders” (Galapagos NV, priority 2015, dated 2019)
# System: RA patients
# Test: Atherogenic index, Study 1 (RA patients, add-on to MTX)
# Format: in vivo, human
# Details: for Atherogenic index Mean percentage CFB - 12 weeks results / Atherogenic index Median CFB - 12 weeks results / Atherogenic index Mean CFB: 2 × 100 mg (b.i.d. group); for atherogenic index variation, decrease compared to pre-treatment baseline: Study 1, after 12 weeks treatment
# Method: As used herein, the term ‘atherogenic index’ refers to
# Double-blind, placebo-controlled add on study in subjects with moderately to severely active RA who have an inadequate response to methotrexate (MTX) (oral or parenteral).
# Compound 1 (dosed as a [Compound 1:HCl:3H2O]) is dosed for twelve weeks once daily (q.d.) (50 mg, 100 mg or 200 mg) or twice daily (b.i.d.) (25 mg, 50 mg or 100 mg); or placebo.
# At Week 12, the subjects on placebo who have not achieved 20% improvement in swollen joint count (SJC66) and tender joint count (TJC68) are re-randomized automatically to receive Compound 1 (dosed as a [Compound 1:HCl:3H2O]) either at 100 mg q.d. or 50 mg b.i.d. doses in a blinded fashion; subjects on 50 mg q.d. who have not achieved 20% improvement in SJC66 and TJC68 will be assigned to 100 mg q.d. and subjects on 25 mg b.i.d. that have not achieved a 20% improvement in SJC66 and TJC68 will be assigned to 50 mg b.i.d. Subjects who switch treatment at week 12 are handled as if they discontinued at week 12 for the purpose of statistical analysis, whereas subjects in the other groups will maintain their randomized treatment until Week 24.
# The atherogenic index has been identified to be a good predictor of cardiovascular disorders risks and is calculated as follows: […]
# [1] = increased from 25 mg b.i.d. to 50 mg b.i.d at 12 weeks, week 1
# [2] = increased from 25 mg b.i.d. to 50 mg b.i.d at 12 weeks, week 2
# [3] = increased from 25 mg b.i.d. to 50 mg b.i.d at 12 weeks, week 4
# [4] = increased from 25 mg b.i.d. to 50 mg b.i.d at 12 weeks, week 8
# [5] = increased from 25 mg b.i.d. to 50 mg b.i.d at 12 weeks, week 12
# [6] = increased from 25 mg b.i.d. to 50 mg b.i.d at 12 weeks, week 16
# [7] = increased from 25 mg b.i.d. to 50 mg b.i.d at 12 weeks, week 20
# [8] = increased from 25 mg b.i.d. to 50 mg b.i.d at 12 weeks, week 24
# [9] = increased from 50 mg q.d. to 100 mg q.d. at 12 weeks, week 1
# [10] = increased from 50 mg q.d. to 100 mg q.d. at 12 weeks, week 2
# [11] = increased from 50 mg q.d. to 100 mg q.d. at 12 weeks, week 4
# [12] = increased from 50 mg q.d. to 100 mg q.d. at 12 weeks, week 8
# [13] = increased from 50 mg q.d. to 100 mg q.d. at 12 weeks, week 12
# [14] = increased from 50 mg q.d. to 100 mg q.d. at 12 weeks, week 16
# [15] = increased from 50 mg q.d. to 100 mg q.d. at 12 weeks, week 20
# [16] = increased from 50 mg q.d. to 100 mg q.d. at 12 weeks, week 24
# [17] = placebo switched to 50 mg b.i.d at week 12, week 16
# [18] = placebo switched to 50 mg b.i.d at week 12, week 20
# [19] = placebo switched to 50 mg b.i.d at week 12, week 24
# [20] = placebo switched to 100 mg q.d. at week 12, week 16
# [21] = placebo switched to 100 mg q.d. at week 12, week 20
# [22] = placebo switched to 100 mg q.d. at week 12, week 24
structure (smiles),measurement,setting,value
"O=C(Nc1nc2cccc(-c3ccc(CN4CCS(=O)(=O)CC4)cc3)n2n1)C1CC1 [Compound 1, cyclopropanecarboxylic acid {5-[4-(1,1-dioxo-thiomorpholin-4-ylmethyl)-phenyl]-[1,2,4]triazolo[1,5-a]pyridin-2yl}-amide]",Atherogenic index Mean percentage CFB - 12 weeks results,week 2,−5%
same,Atherogenic index Median CFB - 12 weeks results,week 2,-0.20 mmol/L
same,Atherogenic index Mean CFB,week 4,-0.30 mmol/L
same,Atherogenic index Mean percentage CFB - 12 weeks results,week 4,−7%
same,Atherogenic index Median CFB - 12 weeks results,week 4,-0.30 mmol/L
same,Atherogenic index Mean CFB,week 8,-0.18 mmol/L
same,Atherogenic index Mean percentage CFB - 12 weeks results,week 8,−4%
same,Atherogenic index Median CFB - 12 weeks results,week 8,-0.20 mmol/L
same,Atherogenic index Mean CFB,week 12,-0.24 mmol/L
same,Atherogenic index Mean percentage CFB - 12 weeks results,week 12,−5%
same,Atherogenic index Median CFB - 12 weeks results,week 12,-0.10 mmol/L
same,"atherogenic index variation, decrease compared to pre-treatment baseline",100 mg/bid dose,0.2 fold
same,"atherogenic index variation, decrease compared to pre-treatment baseline",200 mg q.d.,0.35 fold
same,Atherogenic index Mean CFB - 24 weeks results,[1],0.05 mmol/L
same,Atherogenic index Mean percentage CFB - 24 weeks results,[1],3.56%
same,Atherogenic index Median CFB - 24 weeks results,[1],-0.10 mmol/L
same,Atherogenic index Mean CFB - 24 weeks results,[2],-0.11 mmol/L
same,Atherogenic index Mean percentage CFB - 24 weeks results,[2],−1.15%
same,Atherogenic index Median CFB - 24 weeks results,[2],-0.20 mmol/L
same,Atherogenic index Mean CFB - 24 weeks results,[3],-0.15 mmol/L
same,Atherogenic index Mean percentage CFB - 24 weeks results,[3],−3.02%
same,Atherogenic index Median CFB - 24 weeks results,[3],-0.10 mmol/L
same,Atherogenic index Mean CFB - 24 weeks results,[4],-0.17 mmol/L
same,Atherogenic index Mean percentage CFB - 24 weeks results,[4],−3.11%
same,Atherogenic index Median CFB - 24 weeks results,[4],-0.10 mmol/L
same,Atherogenic index Mean CFB - 24 weeks results,[5],-0.19 mmol/L
same,Atherogenic index Mean percentage CFB - 24 weeks results,[5],−2.58%
same,Atherogenic index Median CFB - 24 weeks results,[5],-0.30 mmol/L
same,Atherogenic index Mean CFB - 24 weeks results,[6],-0.10 mmol/L
same,Atherogenic index Mean percentage CFB - 24 weeks results,[6],−0.03%
same,Atherogenic index Mean CFB - 24 weeks results,[7],-0.26 mmol/L
same,Atherogenic index Mean percentage CFB - 24 weeks results,[7],−4.14%
same,Atherogenic index Mean CFB - 24 weeks results,[8],-0.24 mmol/L
same,Atherogenic index Mean percentage CFB - 24 weeks results,[8],−4.89%
same,Atherogenic index Median CFB - 24 weeks results,[8],-0.30 mmol/L
same,Atherogenic index Mean CFB - 24 weeks results,[9],-0.03 mmol/L
same,Atherogenic index Mean percentage CFB - 24 weeks results,[9],0.53%
same,Atherogenic index Median CFB - 24 weeks results,[9],0.00 mmol/L
same,Atherogenic index Mean CFB - 24 weeks results,[10],-0.06 mmol/L
same,Atherogenic index Mean percentage CFB - 24 weeks results,[10],−0.94%
same,Atherogenic index Median CFB - 24 weeks results,[10],0.10 mmol/L
same,Atherogenic index Mean CFB - 24 weeks results,[11],-0.11 mmol/L
same,Atherogenic index Mean percentage CFB - 24 weeks results,[11],−1.77%
same,Atherogenic index Median CFB - 24 weeks results,[11],-0.10 mmol/L
same,Atherogenic index Mean CFB - 24 weeks results,[12],-0.13 mmol/L
same,Atherogenic index Mean percentage CFB - 24 weeks results,[12],−1.35%
same,Atherogenic index Median CFB - 24 weeks results,[12],-0.10 mmol/L
same,Atherogenic index Mean CFB - 24 weeks results,[13],0.02 mmol/L
same,Atherogenic index Mean percentage CFB - 24 weeks results,[13],2.72%
same,Atherogenic index Median CFB - 24 weeks results,[13],0.20 mmol/L
same,Atherogenic index Mean CFB - 24 weeks results,[14],-0.05 mmol/L
same,Atherogenic index Mean percentage CFB - 24 weeks results,[14],−0.95%
same,Atherogenic index Median CFB - 24 weeks results,[14],-0.10 mmol/L
same,Atherogenic index Mean CFB - 24 weeks results,[15],0.02 mmol/L
same,Atherogenic index Mean percentage CFB - 24 weeks results,[15],−0.01%
same,Atherogenic index Median CFB - 24 weeks results,[15],0.00 mmol/L
same,Atherogenic index Mean CFB - 24 weeks results,[16],-0.12 mmol/L
same,Atherogenic index Mean percentage CFB - 24 weeks results,[16],−2.40%
same,Atherogenic index Median CFB - 24 weeks results,[16],0.00 mmol/L
same,Atherogenic index Mean CFB - 24 weeks results,[17],-0.47 mmol/L
same,Atherogenic index Mean percentage CFB - 24 weeks results,[17],−4.74%
same,Atherogenic index Median CFB - 24 weeks results,[17],-0.10 mmol/L
same,Atherogenic index Mean CFB - 24 weeks results,[18],-0.39 mmol/L
same,Atherogenic index Mean percentage CFB - 24 weeks results,[18],−6.13%
same,Atherogenic index Median CFB - 24 weeks results,[18],-0.20 mmol/L
same,Atherogenic index Mean CFB - 24 weeks results,[19],-0.45 mmol/L
same,Atherogenic index Mean percentage CFB - 24 weeks results,[19],−8.32%
same,Atherogenic index Median CFB - 24 weeks results,[19],-0.30 mmol/L
same,Atherogenic index Mean CFB - 24 weeks results,[20],-0.07 mmol/L
same,Atherogenic index Mean percentage CFB - 24 weeks results,[20],−0.54%
same,Atherogenic index Mean CFB - 24 weeks results,[21],-0.12 mmol/L
same,Atherogenic index Mean percentage CFB - 24 weeks results,[21],−1.77%
same,Atherogenic index Mean CFB - 24 weeks results,[22],-0.12 mmol/L
same,Atherogenic index Mean percentage CFB - 24 weeks results,[22],−3.43%
